Columns and labels:
A673 cell line = assay: In vitro cell proliferation assay (EdU labeling, high-content screening); type: cell-based; details: A673, EWSR1-FLI1 translocation; 72 hrs exposure, 2-fold dilutions from 200 nM; FIG. 1A
Description: (§1) In vitro cell proliferation assays were performed to test the sensitivity of Ewing tumor cell lines to treatment with YM155. The A673 and SK-N-MC cell lines, each of which have the EWSR1-FLI1 translocation that is characteristic of most cases of Ewing tumors, were seeded in 96-well plates at 2×10^3 cells/well and allowed to attach overnight at 37° C. and 5% CO2. The cells were exposed to YM155 at designated concentrations (2-fold serial dilutions starting from 200 nM) for 72 hrs.
(§2) Following drug exposure, the cells were labeled with 5-ethynyl-2′- deoxyuridine (EdU) to assess the tumor cell proliferation rates. The labeling lasted 4 hours in the presence of drug exposure. […]
(§3) The labeled cells were fixed with formaldehyde for 30 min, followed by staining with Hoechst 33342 in a buffer containing 0.5% triton X-100. The incorporated Edu was detected by Click-iT reaction where fixed cells were incubated with a reaction mixture containing 1X Click-iT EdU reaction buffer, CuSO4, and azide-conjugated fluorescent dye in the dark. […]
(§4) The stained tumor cells were imaged by a high-content screening (HCS) platform (Thermo Scientific Cellomics Array Scan XTi HCS reader). […] From the images fluorescent signals for cell nucleus and the EdU incorporated in newly synthesized DNA were obtained from the HCS reader. […] The IC50 was calculated from the dose response curve of drug inhibition.

SK-N-MC cell line = assay: as above; type: cell-based; details: EWSR1-FLI1 translocation, 72 hrs exposure, 2-fold dilutions from 200 nM, FIG. 1B
Description: as §1, §2, §3, §4

A673 xenograft = assay: Murine A673 xenograft Ewing tumor model
Description: The dosing schedules in FIG. 4B are as follows: YM155 monobromide, 3.5 mg/kg, 21-day-infusion with an osmotic pump; vincristine, 0.5 mg/kg, QW*3, IV; doxorubicin, 3.3 mg/kg, QW*3, IV; cyclophosphamide, 40 mg/kg, QW*3, IV. The dosing schedules in FIG. 4B are as follows: YM155 monobromide, 2 mg/kg, 21-day-infusion with an osmotic pump; ifosfamide, 30 mg/kg, QW*3, IV; etoposide, 7.5 mg/kg, QW*3, IP. […] The dosing schedules were as follows: YM155 monobromide, 3.5 mg/kg, 21-day-infusion with an osmotic pump; vincristine, 0.5 mg/kg, QW*3, IV; doxorubicin, 3.3 mg/kg, QW*3, IV; cyclophosphamide, 40 mg/kg, QW*3, IV.
To test for in vivo activity, a Ewing tumor model was generated by implanting either A673 or SK-N-MC cells into mice. When the tumor size reached 150 mm3, the mice were grouped randomly and injected with YM155 by 21-day infusion with an osmotic pump. The tumor size was measured every three days.

MYC = assay: Western-blot analysis of MYC expression level; type: cell-based; details: A673 and SK-N-MC cells, 10 nM, 12-48 hrs; FIG. 5
Description: (§5) Western-blot analysis was performed to examine the suppression by YM155 on the expression level of EWS-FLI1, the protein product of EWSR1-FLI1 translocation, and its effector proteins MYC and cyclin D1. In brief, A673 and SK-N-MC cells seeded on 6-well plates were treated with 10 nM YM155 for 12-48 hrs. The cells were then harvested and lysed in a lysis buffer containing protease inhibitor cocktail (Beyotime, China) at 4C. The concentrations of total protein in the cell lysates were determined by BCA Protein Assay Kit (ThermoFisher, USA). Forty micrograms of total protein was used in each lane for SDS-PAGE and western-blot assay. Antibodies against EWS-FLI1, MYC, and cyclin D1 were used to detect the expression levels of the proteins. GAPDH was used as a loading control.

EWS-FLI1 = assay: Western-blot analysis of EWS-FLI1 expression level; type: cell-based; details: A673 and SK-N-MC cells, 10 nM, 12-48 hrs; FIG. 5
Description: as §5

SK-N-MC xenograft = assay: Murine SK-N-MC xenograft Ewing tumor model; type: in vivo, mice
SK-N-MC cells = assay: Apoptosis assays (Annexin V/PI and caspase 3 activity, flow cytometry); type: cell-based; details: 10 nM, 3 days drug exposure, vs DMSO, FIGS. 3A-3D
Description: (§6) Cellular apoptosis was then assayed with the Alexa Fluor™ 488 Annexin V/Dead cell apoptosis Kit (ThermoFisher®, USA) and GreenNuc™ live cell caspase 3 activity assay kit (Beyotime Biotechnology, China). Briefly, cells cultured in 6-well tissue culture plates were treated with 10 nM YM155 or DMSO (control). Following 3 days drug exposure, the cells were collected and assayed for apoptosis according to the manufacturers' instructions. For annexin V assay, the cell suspensions were incubated with Alexa Flour™ 488 labeled annexin V and Propidium Iodide (PI). For the caspase 3 activity assay, a caspase 3 substrate was added to generate fluorescent product. The cells were then analyzed on a BD LSR Fortessa cell analyzer. Flow cytometry data was analyzed with Flowjo software.

A673 cells = assay: as above; type: cell-based; details: 10 nM, 3 days drug exposure, vs DMSO, FIGS. 2A-2D
Description: as §6

cyclin D1 = assay: Western-blot analysis of cyclin D1 expression level; type: cell-based; details: A673 and SK-N-MC cells, 10 nM, 12-48 hrs; FIG. 5
Description: as §5

Substance: 1-(2-Methoxyethyl)-2-methyl-4,9-dioxo-3-(pyrazin-2-ylmethyl)-4,9-dihydro-1H-naphtho[2,3-d] imidazolium bromide [YM155]
- sensitivity to YM155 in in vitro cell proliferation assay (A673 cell line): highly sensitive
- sensitivity to YM155 in in vitro cell proliferation assay (SK-N-MC cell line): highly sensitive
- effect on tumor growth (A673 xenograft; A673 xenograft in mice, 21-day infusion with osmotic pump, 3.5 or 2 mg/kg, FIGS. 4A-4B): strong inhibitory effect on tumor growth
- efficacy compared with ifosfamide/etoposide combination therapy (A673 xenograft; A673 xenograft, YM155 2 mg/kg 21-day infusion vs ifosfamide 30 mg/kg QW*3 IV, etoposide 7.5 mg/kg QW*3 IP): superior
- efficacy compared with vincristine standalone therapy (A673 xenograft; A673 xenograft, YM155 3.5 mg/kg 21-day infusion vs vincristine 0.5 mg/kg QW*3 IV): superior
- efficacy compared with vincristine/doxorubicin/cyclophosphamide triple therapy (A673 xenograft; A673 xenograft, YM155 3.5 mg/kg 21-day infusion vs vincristine 0.5, doxorubicin 3.3, cyclophosphamide 40 mg/kg QW*3 IV): superior
- protein expression of MYC (MYC): inhibited protein expression
- protein expression of EWS-FLI1 (EWS-FLI1): inhibited protein expression
- effect on tumor growth (SK-N-MC xenograft; SK-N-MC xenograft in mice, 3.5 mg/kg, 21-day infusion with osmotic pump, FIG. 4C): strong inhibitory effect on tumor growth
- efficacy compared with vincristine standalone therapy (SK-N-MC xenograft; SK-N-MC xenograft, YM155 3.5 mg/kg 21-day infusion vs vincristine 0.5 mg/kg QW*3 IV): superior
- efficacy compared with vincristine/doxorubicin/cyclophosphamide triple therapy (SK-N-MC xenograft; SK-N-MC xenograft, YM155 3.5 mg/kg 21-day infusion vs vincristine 0.5, doxorubicin 3.3, cyclophosphamide 40 mg/kg QW*3 IV): superior
- apoptosis induction (SK-N-MC cells): induced strong apoptosis
- apoptosis induction (A673 cells): induced strong apoptosis
- protein expression of cyclin D1 (cyclin D1): inhibited protein expression

Reference: patent publication US20230277536A1, “METHODS AND COMPOSITIONS FOR TREATING EWING FAMILY OF TUMORS” (priority 2021, published 2023)
